{
  "source": "paper PMC11022693",
  "about": "“Targeting C21orf58 is a Novel Treatment Strategy of Hepatocellular Carcinoma by Disrupting the Formation of JAK2/C21orf58/STAT3 Complex” (Advanced Science, 2024)",
  "molecular_target": "T1, C21orf58 (Homo sapiens, UniProt P58505)",
  "T1 construct": "human C21orf58 in pET-21a, expressed in E. coli Rosetta (DE3), Ni-NTA purified, lyophilized",
  "T1 sequence (P58505 whole entry)": "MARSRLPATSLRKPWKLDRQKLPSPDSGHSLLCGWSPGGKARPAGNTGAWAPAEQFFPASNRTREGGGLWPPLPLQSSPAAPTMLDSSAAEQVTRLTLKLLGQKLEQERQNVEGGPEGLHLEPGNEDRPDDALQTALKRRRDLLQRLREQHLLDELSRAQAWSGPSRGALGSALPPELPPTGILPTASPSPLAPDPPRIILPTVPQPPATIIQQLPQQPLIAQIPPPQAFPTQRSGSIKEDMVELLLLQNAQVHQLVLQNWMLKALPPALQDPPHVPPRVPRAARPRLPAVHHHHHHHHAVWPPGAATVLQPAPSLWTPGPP",
  "test": "1H NMR of mixed ligand and purified protein",
  "type": "binding",
  "details": "deuterated water; mixed and incubated 30 min at room temperature; 600 MHz",
  "data": [
    {"smiles": "C=C(C)CNc1ccc(C(C)C(=O)O)cc1", "note": "(stereo not shown) [alminoprofen]", "values": [
      {"measurement": "1H NMR of mixed ligand and purified protein", "value": "H Nuclear Magnetic Resonance Spectra suggested that alminoprofen could bind on the C21orf58 protein"}
    ]}
  ]
}
